Results taken from patent publication US12589170B2, “Devices and methods for radiopharmaceutical synthesis” (VANDERBILT UNIVERSITY, priority 2019, dated 2026).

What was measured:
rat brain = test: microPET imaging of rat brain with [18F]fallypride produced in the microfluidic chip; format: in vivo; conditions: dose of about 300 μCi, microPET for about 2 hours
Source text: To further verify the utility of the resulting [^18F]fallypride, we produced (using the integrated microfluidic chip) a dose of about 300 μCi with about 19.55 Ci/μmol (723.35 GBq/μmol) of specific activity and about 98.62% of radiochemical purity, and obtained PET data from a rat brain. The time point used to calculate the specific activity was at the end of production, namely the time when the purified [^18F]fallypride was retrieved from chip. The rat was brought to the imaging lab to habituate about 3 hours prior to imaging. About 0.1 ml purified [^18F] fallypride was filtered through an about 0.45 μm filter (Millex-HV) and about 0.9 ml saline was added to formulate the PET probe used for rat injection. […] The accumulation and pharmacokinetics of [^18F]fallypride were as expected when evaluated in the rat brain.

[1] = Stability of final product at room temperature examined by radio-HPLC; format: physicochemical; conditions: duration up to about 4 hours
Method: A Hitachi HPLC (LaChrom Elite, Pump L-2130) equipped with a wavelength UV detector (L-2400, 254 nm) and inline radiation detector (Inline Carroll & Ramsey) was used to evaluate radiochemical purity. A C18 column (Phenomenex Gemini, particle size about 10 μm, 150×4.6 mm) was used. For the mobile phase, acetonitrile (referred as A1) mixed with water containing about 0.1% trifluoroacetic acid (TFA) was used with gradient as following: 0% A1/100% TFA for about 0-2 min, 100% A1/0% TFA for about 8-10 min. The flow rate was constantly set as about 1 mL/min. Moreover, radiochemical purity was also examined by radio thin layer chromatography (TLC) using ITLC (instant TLC) paper strips (Varian). […] The value of radioactivity was measured using a calibrated dose calibrator (Capintec, CRC-25PET). The radiochemical yields were evaluated as a percentage of total activity of ^68GaCl3 initially delivered from the generator. Unless specified elsewhere, all efficiencies are calculated based on decay-corrected values.
A radio-TLC chromatogram of synthesized product is shown in FIG. 6 and the ^68Ga-labelled peptide has an approximate retardation factor of about 0.8-1.0. Using the microfluidic device, the incorporation efficiency of 100% can be consistently achieved as determined by radio HPLC chromatogram (FIG. 7B). […]

Structure (SMILES) | accumulation and pharmacokinetics in the rat brain (rat brain) | stability of final product (retention time, product purity by radio-HPLC) [1]
C=CCN1CCC[C@H]1CNC(=O)c1cc(CCC[18F])cc(OC)c1OC [[^18F]fallypride] | as expected | –
O=C([O-])CN(CCN(CC(=O)[O-])Cc1cc(CCC(=O)NCCCCCC(=O)NCCCC[C@H](NC(=O)N[C@@H](CCC(=O)O)C(=O)O)C(=O)O)ccc1[O-])Cc1cc(CCC(=O)O)ccc1[O-].[68Ga+3].[OH3+] [^68Ga-PSMA-11] | – | no discrepancy on retention time or product purity was observed
